Reference: publication PMC2688486, “Xylose reductase from Pichia stipitis with altered coenzyme preference improves ethanolic xylose fermentation by recombinant Saccharomyces cerevisiae” (Biotechnology for Biofuels, 2009)

Assays:
[1] = target: T1, P. stipitis XR (xylose reductase, XYL1) (Scheffersomyces stipitis, UniProt P31867); experiment: NAD(P)H absorbance at […] nm, initial rates fitted to compulsory-order ternary-complex equation; assay type: biochemical; settings: crude extract, xylose co-substrate varied, pH 7.0 triethanolamine, 30°C; kinetic dissociation constant; read-out: KiA
T1 construct: native full-length XYL1 from plasmid pY7, chromosomally integrated in S. cerevisiae TMB 3044 (gre3 deleted); crude cell extract

[2] = target: T2, P. stipitis XR (xylose reductase, XYL1) (Scheffersomyces stipitis, UniProt P31867, K270R); experiment: as above; assay type: biochemical; settings: crude extract, xylose co-substrate varied, pH 7.0 triethanolamine, 30°C; kinetic dissociation constant; read-out: KiA
T2 construct: native full-length XYL1 from plasmid pY7, chromosomally integrated in S. cerevisiae TMB 3044 (gre3 deleted); crude cell extract

[3] = target: T3, P. stipitis XR (xylose reductase, XYL1) (Scheffersomyces stipitis, UniProt P31867, K270M); experiment: as above; assay type: biochemical; settings: crude extract, xylose co-substrate varied, pH 7.0 triethanolamine, 30°C; kinetic dissociation constant; read-out: KiA
T3 construct: native full-length XYL1 from plasmid pY7, chromosomally integrated in S. cerevisiae TMB 3044 (gre3 deleted); crude cell extract

[4] = substrate: NC(=O)C1=CN([C@@H]2O[C@H](COP(=O)(O)OP(=O)(O)OC[C@H]3O[C@@H](n4cnc5c(N)ncnc54)[C@H](O)[C@@H]3O)[C@@H](O)[C@H]2O)C=CC1; experiment: cells, lysate or membranes; assay type: biochemical, Scheffersomyces stipitis; settings: crude extract, xylose co-substrate varied, pH 7.0 triethanolamine, 30°C, varied: cofactor
[5] = substrate: NC(=O)C1=CN([C@@H]2O[C@H](COP(=O)(O)OP(=O)(O)OC[C@H]3O[C@@H](n4cnc5c(N)ncnc54)[C@H](OP(=O)(O)O)[C@@H]3O)[C@@H](O)[C@H]2O)C=CC1; experiment: cells, lysate or membranes; assay type: biochemical, Scheffersomyces stipitis; settings: crude extract, xylose co-substrate varied, pH 7.0 triethanolamine, 30°C, varied: cofactor

Kd [1] | Kd [2] | Kd [3] | Molecule | Km [4] | Km [5]
1.4 ± 1.2 µM | 22.9 ± 17.6 µM | 293 ± 169 µM | NC(=O)C1=CN([C@@H]2O[C@H](COP(=O)(O)OP(=O)(O)OC[C@H]3O[C@@H](n4cnc5c(N)ncnc54)[C@H](OP(=O)(O)O)[C@@H]3O)[C@@H](O)[C@H]2O)C=CC1 [NADPH] | – | –
25.9 ± 11.7 µM | 57.4 ± 34.9 µM | – | NC(=O)C1=CN([C@@H]2O[C@H](COP(=O)(O)OP(=O)(O)OC[C@H]3O[C@@H](n4cnc5c(N)ncnc54)[C@H](O)[C@@H]3O)[C@@H](O)[C@H]2O)C=CC1 [NADH] | – | –
– | – | – | P. stipitis XR (xylose reductase, XYL1) (Scheffersomyces stipitis CBS 6054) (protein, native full-length XYL1 from plasmid pY7, chromosomally integrated in S. cerevisiae TMB 3044 (gre3 deleted); crude cell extract) MPSIKLNSGYDMPAVGFGCWKVDVDTCSEQIYRAIKTGYRLFDGAEDYANEKLVGAGVKKAIDEGIVKREDLFLTSKLWNNYHHPDNVEKALNRTLSDLQVDYVDLFLIHFPVTFKFVPLEEKYPPGFYCGKGDNFDYEDVPILETWKALEKLVKAGKIRSIGVSNFPGALLLDLLRGATIKPSVLQVEHHPYLQQPRLIEFAQSRGIAVTAYSSFGPQSFVELNQGRALNTSPLFENETIKAIAAKHGKSPAQVLLRWSSQRGIAIIPKSNTVPRLLENKDVNSFDLDEQDFADIAKLDINLRFNDPWDWDKIPIFV | 28.7 ± 5.4 µM | 1.0 ± 0.6 µM
– | – | – | P. stipitis XR (xylose reductase, XYL1) (Scheffersomyces stipitis CBS 6054; K270R) (protein, native full-length XYL1 from plasmid pY7, chromosomally integrated in S. cerevisiae TMB 3044 (gre3 deleted); crude cell extract) MPSIKLNSGYDMPAVGFGCWKVDVDTCSEQIYRAIKTGYRLFDGAEDYANEKLVGAGVKKAIDEGIVKREDLFLTSKLWNNYHHPDNVEKALNRTLSDLQVDYVDLFLIHFPVTFKFVPLEEKYPPGFYCGKGDNFDYEDVPILETWKALEKLVKAGKIRSIGVSNFPGALLLDLLRGATIKPSVLQVEHHPYLQQPRLIEFAQSRGIAVTAYSSFGPQSFVELNQGRALNTSPLFENETIKAIAAKHGKSPAQVLLRWSSQRGIAIIPRSNTVPRLLENKDVNSFDLDEQDFADIAKLDINLRFNDPWDWDKIPIFV | 62.8 ± 18.7 µM | 25.8 ± 9.1 µM
– | – | – | P. stipitis XR (xylose reductase, XYL1) (Scheffersomyces stipitis CBS 6054; K270M) (protein, native full-length XYL1 from plasmid pY7, chromosomally integrated in S. cerevisiae TMB 3044 (gre3 deleted); crude cell extract) MPSIKLNSGYDMPAVGFGCWKVDVDTCSEQIYRAIKTGYRLFDGAEDYANEKLVGAGVKKAIDEGIVKREDLFLTSKLWNNYHHPDNVEKALNRTLSDLQVDYVDLFLIHFPVTFKFVPLEEKYPPGFYCGKGDNFDYEDVPILETWKALEKLVKAGKIRSIGVSNFPGALLLDLLRGATIKPSVLQVEHHPYLQQPRLIEFAQSRGIAVTAYSSFGPQSFVELNQGRALNTSPLFENETIKAIAAKHGKSPAQVLLRWSSQRGIAIIPMSNTVPRLLENKDVNSFDLDEQDFADIAKLDINLRFNDPWDWDKIPIFV | – | 290 ± 78.6 µM
